According to patent US6284785A, “1-arenesulfonyl-2-aryl-pyrrolidine and pyridine derivatives” (Hoffmann- La Roche Inc., priority 1999, dated 2001):
pEC50, pIC50: −log10 of the molar value. Counter-ions that a name gives are not always drawn.

Molecular target: T1, rat mGlu 1a receptor (Rattus norvegicus, UniProt P23385)
T1 construct: expressed in transfected cells; host or cells: EBNA cells (transient transfection)
Test: [Ca2+]i measurements (FLIPR, Fluo-3 AM) on mGlu 1a transfected EBNA cells; agonist or antagonist (against 10 μM glutamate)
Assay type: cell-based
Conditions: for Remarks (agonist / antagonist): table of substituents of the Examples, column Remarks; for agonist/antagonist: activity-data table; for pEC50: agonist, activation of mGlu 1a in EBNA cells, read-out: IC50 (compounds marked agonist)
Method: cDNA encoding rat mGlu 1a receptor obtained from Prof. Nakanishi (Kyoto, Japan) was transiently tranfected into EBNA cells using a procedure described by Schlaeger et. al, New Dev. New Appl. Anim Cell Techn., Proc. ESACT Meet., 15th (1998), 105-112 and 117-120. [Ca^2+ ]i measurements were performed on mGlu 1a transfected EBNA cells after incubation of the cells with Fluo-3 AM (0.5 μM final concentration) for 1hour at 37° C. followed by 4 washes with assay buffer (DMEM supplemented with Hank's salt and 20 mM HEPES. [Ca^2+ ]i measurements were done using a fluorometric imaging plate reader (FLIPR, Molecular Devices Corporation, La Jolla, Calif. USA). When compounds were evaluated as antagonists they were tested against 10 μM glutamate as agonist.
The inhibition (antagonists) or activation (agonists) curves were fitted with a four parameter logistic equation giving EC50, IC50, and Hill coefficient using the iterative non linear curve fitting software Origin (Microcal Software Inc., Northampton, Mass., USA).

T1 sequence (P23385 19-1199): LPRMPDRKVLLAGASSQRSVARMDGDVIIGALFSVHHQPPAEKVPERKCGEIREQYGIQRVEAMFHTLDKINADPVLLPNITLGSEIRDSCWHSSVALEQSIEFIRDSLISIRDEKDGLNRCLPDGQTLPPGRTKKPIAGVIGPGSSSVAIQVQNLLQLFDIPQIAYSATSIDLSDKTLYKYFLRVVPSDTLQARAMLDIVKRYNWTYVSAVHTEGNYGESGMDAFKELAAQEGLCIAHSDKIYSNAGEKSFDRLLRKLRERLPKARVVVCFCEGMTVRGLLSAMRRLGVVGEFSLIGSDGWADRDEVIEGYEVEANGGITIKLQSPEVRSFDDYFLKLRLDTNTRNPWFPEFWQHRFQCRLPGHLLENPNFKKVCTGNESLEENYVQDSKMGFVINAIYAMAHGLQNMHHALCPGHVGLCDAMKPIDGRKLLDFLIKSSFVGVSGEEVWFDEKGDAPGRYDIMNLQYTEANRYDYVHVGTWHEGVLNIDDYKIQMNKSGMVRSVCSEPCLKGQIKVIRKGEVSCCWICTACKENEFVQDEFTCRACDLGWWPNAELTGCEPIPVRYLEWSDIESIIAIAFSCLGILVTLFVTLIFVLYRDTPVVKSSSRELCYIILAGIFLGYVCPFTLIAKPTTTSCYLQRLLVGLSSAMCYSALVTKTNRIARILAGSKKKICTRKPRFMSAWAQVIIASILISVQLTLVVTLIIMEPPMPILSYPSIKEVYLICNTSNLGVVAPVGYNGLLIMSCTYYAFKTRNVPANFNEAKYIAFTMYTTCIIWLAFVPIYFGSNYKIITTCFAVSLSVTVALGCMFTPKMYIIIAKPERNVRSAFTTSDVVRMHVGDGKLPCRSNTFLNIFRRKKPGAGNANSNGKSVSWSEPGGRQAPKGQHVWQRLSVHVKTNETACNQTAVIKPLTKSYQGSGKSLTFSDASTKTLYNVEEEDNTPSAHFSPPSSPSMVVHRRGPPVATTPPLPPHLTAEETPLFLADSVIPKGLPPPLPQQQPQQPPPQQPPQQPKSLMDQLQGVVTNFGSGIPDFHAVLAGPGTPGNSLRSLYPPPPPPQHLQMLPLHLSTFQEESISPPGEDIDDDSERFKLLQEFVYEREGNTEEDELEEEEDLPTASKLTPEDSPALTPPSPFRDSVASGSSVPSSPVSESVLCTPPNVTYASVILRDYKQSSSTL

Row | SMILES | agonistic / antagonistic activity to the mGlu receptor | Remarks (agonist / antagonist) | other results
1 | CCc1ccc(C2CCCN2S(=O)(=O)c2ccc(C)cc2)cc1 (racemic) [Example 78, (RS)-2-(4-Ethyl-phenyl)-1-(toluene-4-sulfonyl)-pyrrolidine] | agonistic activty | Agonist | –
2 | Cc1ccc(S(=O)(=O)N2CC[C@@H](CO)[C@@H]2c2ccc(F)cc2)cc1 (racemic) [Example 91, (2RS,3 RS)-[2-(4-Fluoro-phenyl)-1-(toluene-4-sulfonyl)-pyrrolidin-3-yl]-methanol] | agonistic activty | agonist | –
3 | COCc1ccc(S(=O)(=O)N2CCCC2c2ccc(F)cc2)cc1 (racemic) [Example 85, (RS)-2-(4-Fluoro-phenyl)-1-(4-methoxymethyl-benzenesulfonyl)-pyrrolidine] | agonistic activty | Agonist | –
4 | O=S(=O)(c1ccc(F)cc1)N1CCCC1c1ccc(F)c(Cl)c1 (racemic) [Example 44, (RS)-2-(3-Chloro-4-fluoro-phenyl)-1-(4-fluoro-benzenesulfonyl)-pyrrolidine] | – | Antagonist | –
5 | Cc1ccc(S(=O)(=O)N2CCCC2c2cccs2)cc1 (racemic) [Example 37, (RS)-2-Thien-2-yl-1-(toluene-4-sulfonyl)-pyrrolidine] | – | Antagonist | –
6 | O=S(=O)(c1ccc(F)cc1)N1CCCC1c1ccc(C(F)(F)F)cc1 (racemic) [Example 50, (RS)-1-(4-Floro-benzenesulfonyl)-2-(4-trifluoromethyl-phenyl)-pyrrolidine] | – | Antagonist | –
7 | NCc1ccc(S(=O)(=O)N2CCCC2c2ccc(F)cc2)cc1 (racemic) [Example 87, (RS)-4-[2-(4-Fluoro-phenyl)-pyrrolidine-1-sulfonyl]-benzylamine fumarate (1:0.5)] | – | Antagonist | –
8 | Cc1ccc(C2CCCN2S(=O)(=O)c2ccc(Cl)cc2)cc1 (racemic) [Example 20, (RS)-1-(4-Chloro-benzenesulfonyl)-2-p-tolyl-pyrrolidine] | – | Antagonist | –
9 | O=S(=O)(c1ccccc1)N1CCCC1c1ccc(C(F)(F)F)cc1 (racemic) [Example 75, (RS)-1-Benzenesulfonyl-2-(4-trifluoromethyl-phenyl)-pyrrolidine] | – | Antagonist | –
10 | Cc1ccc(S(=O)(=O)N2CCCC2c2cccc(C)c2)cc1 (racemic) [Example 28, (RS)-1-(Toluene-4-sulfonyl)-2-m-tolyl-pyrrolidine] | – | Agonist | –
11 | O=S(=O)(c1ccc(Cl)cc1)N1CCCC1c1cccc(Cl)c1 (racemic) [Example 32, (RS)-1-(4-Chloro-benzenesulfonyl)-2-(3-chloro-phenyl)-pyrrolidine] | – | Antagonist | –
12 | Cc1ccc(S(=O)(=O)N2CCCC2c2ccccc2)cc1 (racemic) [Example 4, (RS)-2-Phenyl-1-(toluene-4-sulfonyl)-pyrrolidine] | – | Agonist | agonist/antagonist: agonist; pEC50: 6.64
13 | O=S(=O)(c1ccc(Cl)cc1)N1CCCC1c1ccc(F)c(F)c1 (racemic) [Example 39, (RS)-1-(4-Chloro-benzenesulfonyl)-2-(3,4-difluoro-phenyl)-pyrrolidine] | agonistic activty | Agonist | –
14 | Cc1cccc(C2CCCN2S(=O)(=O)c2ccc(F)cc2)c1 (racemic) [Example 30, (RS)-1-(4-Fluoro-benzenesulfonyl)-2-m-tolyl-pyrrolidine] | – | Antagonist | –
15 | O=S(=O)(c1ccc2ccccc2c1)N1CCCC1c1ccc(F)cc1 (racemic) [Example 66, (RS)-2-(4-Fluoro-phenyl)-1-(naphthalene-2-sulfonyl)-pyrrolidine] | – | Antagonist | –
16 | O=S(=O)(c1ccc(Cl)cc1)N1CCC[C@@H]1c1ccc(F)cc1 [Example 76, (R)-1-(4-Chloro-benzenesulfonyl)-2-(4-fluoro-phenyl)-pyrrolidine] | – | Agonist | –
17 | Cc1ccc(S(=O)(=O)N2CCCC2c2cccnc2)cc1 (racemic) [Example 83, (RS)-3-[1-(Toluene-4-sulfonyl)-pyrrolidin-2-yl]-pyridine] | agonistic activty | Agonist | –
18 | O=S(=O)(c1ccc(Cl)cc1)N1CCCC1c1ccncc1 (racemic) [Example 14, (RS)-4-1-(4-Chloro-benzenesulfonyl)-pyrrolidine-pyridine] | – | Agonist | –

Row | SMILES | agonistic / antagonistic activity to the mGlu receptor | Remarks (agonist / antagonist) | other results
19 | O=S(=O)(c1ccc(Cl)cc1)N1CCCC1c1ccc(Cl)cc1 (racemic) [Example 9, (RS)-1-(4-Chloro-benzenesulfonyl)-2-(4-chloro-phenyl)-pyrrolidine] | agonistic activty | Agonist | –
20 | CN(C)c1ccc(C2CCCN2S(=O)(=O)c2ccc(Cl)cc2)cc1F (racemic) [Example 40, (RS)-1-(4-Chloro-benzenesulfonyl)-2-(4-dimethylamino-3-fluoro-phenyl)-pyrrolidine] | agonistic activty | Agonist | –
21 | Cc1ccc(S(=O)(=O)N2CCCC2c2cccc(Cl)c2)cc1 (racemic) [Example 31, (RS)-2-(3-Chloro-phenyl)-1-(toluene-4-sulfonyl)-pyrrolidine] | agonistic activty | Agonist | –
22 | O=C(O)/C=C/C(=O)O.O=S(=O)(c1ccc(CN2CCOCC2)cc1)N1CCCC1c1ccc(F)cc1 (racemic) [Example 86, (RS)-4-{4-[2-(4-Fluoro-phenyl)-pyrrolidine-1-sulfonyl]-benzyl}-morpholine fumarate (1:1)] | – | Antagonist | –
23 | COc1ccc(C2CCCN2S(=O)(=O)c2ccc(Cl)cc2)cc1 (racemic) [Example 24, (RS)-1-(4-Chloro-benzenesulfonyl)-2-(4-methoxyl-phenyl)-pyrrolidine] | – | Antagonist | –
24 | CCCc1ccc(S(=O)(=O)N2CCCC2c2ccc(F)cc2)cc1 (racemic) [Example 59, (RS)-2-(4-Fluoro-phenyl)-1-(4-propyl-benzenesulfonyl)-pyrrolidine] | – | Antagonist | –
25 | Cc1ccc(S(=O)(=O)N2CCCC2c2ccsc2)cc1 (racemic) [Example 55, (RS)-2-Thien-3-yl-1-(toluene-4-sulfonyl)-pyrrolidine] | agonistic activty | Agonist | –
26 | Cc1ccc(S(=O)(=O)N2CCCC2c2ccco2)cc1 (racemic) [Example 69, (RS)-2-Furan-2-yl-1-(toluene-4-sulfonyl)-pyrrolidine] | agonistic activty | Agonist | –
27 | Cc1ccc(C2CCCN2S(=O)(=O)c2ccc(F)cc2)c(C)c1 (racemic) [Example 68, (RS)-2-(2,4-Dimethyl-phenyl)-1-(4-fluoro-benzenesulfonyl)-pyrrolidine] | – | Antagonist | –
28 | Cc1ccc(S(=O)(=O)N2CCCC2c2ccccc2Cl)cc1 (racemic) [Example 51, (RS)-2-(2-Chloro-phenyl)-1-(toluene-4-sulfonyl)-pyrrolidine] | – | Antagonist | –
29 | O=S(=O)(c1ccc(Br)cc1)N1CCCC1c1ccc(F)cc1 (racemic) [Example 26, (RS)-1-(4-Bromo-benzenesulfonyl)-2-(4-fluoro-phenyl)-pyrrolidine] | agonistic activty | Agonist | –
30 | Cc1ccc(S(=O)(=O)N2CCCC2c2ccc(F)cc2)cc1Cl (racemic) [Example 62, (RS)-1-(3-Chloro-4-methyl-benzenesulfonyl)-2-(4-fluoro-phenyl)-pyrrolidine] | – | Antagonist | –
31 | Cc1cc(C)c(S(=O)(=O)N2CCCC2c2ccc(F)cc2)c(C)c1 (racemic) [Example 61, (RS)-2-(4-Fluoro-phenyl)-1-(2,4,6-trimethyl-benzenesulfonyl)-pyrrolidine] | – | Antagonist | –
32 | O=S(=O)(c1ccc(Cl)cc1)N1CCCC1c1cccs1 (racemic) [Example 36, (RS)-1-(4-Chloro-benzenesulfonyl)-2-thien-2-yl-pyrrolidine] | – | Antagonist | agonist/antagonist: antagonist; pIC50 (antagonist, tested against 10 μM glutamate as agonist, read-out: IC50 (compounds marked antagonist)): 6.25
33 | O=S(=O)(c1ccc(F)cc1)N1CCCC1c1ccco1 (racemic) [Example 70, (RS)-1-(4-Fluoro-benzenesulfonyl)-2-furan-2-yl-pyrrolidine] | – | Antagonist | –
34 | N#Cc1ccc(S(=O)(=O)N2CCCC2c2ccc(F)cc2)cc1 (racemic) [Example 33, (RS)-2-(4-Fluoro-phenyl)-1-(4-cyano-benzenesulfonyl)-pyrrolidine] | – | Antagonist | –
35 | O=S(=O)(c1ccc(Cl)cc1)N1CCCC1c1ccsc1 (racemic) [Example 56, (RS)-1-(4-Chloro-benzenesulfonyl)-2-thien-3-yl-pyrrolidine] | agonistic activty | Agonist | –
36 | Cc1ccc(S(=O)(=O)N2CCCC2c2ccncc2)cc1 (racemic) [Example 3, (RS)-4-[1-(Toluene-4-sulfonyl)-pyrrolidin-2-yl]-pyridine] | – | Agonist | agonist/antagonist: agonist; pEC50: 5.09
